Reference: patent publication US20260125397A1, “MK2 DEGRADERS AND USES THEREOF” (Kymera Therapeutics, Inc., priority 2023, published 2026)

What was measured:
MK2 [1] = molecular target: T1, MK2 (Homo sapiens, UniProt P49137); assay: MK2 degradation in human SW1353 cells (MSD, 24 h); format: cell-based; parameters: endogenous in cells; host or cells: SW-1353 (ATCC HTB-94); settings: for Dmax: read-out: MK2 MSD SW 1353 24 h Dmax %; for DC50: read-out: MK2 MSD SW1353 degradation 24 h GMean External Abs DC50
Method: The human chondrocyte cancer cell line SW-1353 (ATCC(HTB-94)) was cultured in 96 well plates (Coming 3894) at a density of 200,000 cells per well in 100 microlitres in complete growth medium of Leibovitz's L-15 Medium (Gibco) pus 10% fetal Bovine Serum (Coming) and Penicillin/Streptomycin (SolarBio) at 37 degrees Celsius. A serial dilution of each compound (usually 3 to 5 fold serial dilutions up to 10 separate concentration points) was added to individual wells from a 10 millimolar stock solution, at a background concentration of 0.10% DMSO and the cells were shaken at 600 rpm for 5 minutes and then were cultured for 24 hours at 37 degrees Celsius. Separately, a custom MSD (MesoScaleDiscovery, L15XA-3) plate for detection of human MK2 was prepared by coating the plate with the commercial AbCam ab247272 reagent in 1× Phosphate Buffered Saline at 40 microlitres per well and incubated at 4 degrees Celsius overnight. The next day, the MSD plate was washed with 150 microlitres of Tween buffered saline, blocked with MSD blocking buffer (3% Blocker A from MSD), and washed again.
The cell plate was centrifuged at 3,200 g for 5 minutes and the supernatant was discarded and 100 microlitres of RIPA lysis buffer (containing proteinase inhibitors, Boston BioProducts BP-115D) was added and the plate was sealed and shaken on ice for 20 minutes. The plate was centrifuged as before and 70 microlitres of sample lysate was added to the MSD plates and they were shaken at room temperature for 1 hour at 600 rpm. The MSD plate was washed 3 times as before and then the primary MK2 detection antibody (Santa Cruz sc-100393) was added at a final concentration of 1 microgram per ml at 25 microlitres per well and shaken at room temperature for 1 hour at 600 rpm.
(§1) After 3 more washes, the secondary detection antibody (SULFO-Tag anti rabbit antibody R32AB-5) was added at a final concentration of 1 microgram per ml at 25 microlitres per well and shaken at room temperature for 1 hour at 600 rpm. After 3 more washes, the 1X MSD (diluted from 5X concentrate with water) reading buffer was added at 150 microlitres per well and read on the MSD instrument Meso Sector S 600.
(§2) The inhibition/degradation curves and DC50 values were plotted and calculated using XL Fit (version v5.3.1.3) using equation 201 and a 4 parameter logistic model whereby fit=(A+((B−A)/(1+((x/C)D))) where A is the Bottom and B is the Top and C is the IC50 and D is the slope and high C is the signal for the DMSO treated cells and Low C is the signal is the signal for the lysis buffer.

MK2 [2] = molecular target: T1, MK2; assay: MK2 degradation in human THP-1 monocytic cells (MSD, 24 h); format: cell-based; parameters: endogenous in cells; settings: THP-1 cells; for DC50: read-out: MK2 MSD THP-1 degradation 24 h GMean External Abs DC50
Method: The human monocytic cancer cell line THP-1 (ATCC (TIB-202)) was cultured in 96 well plates (Coming 3894) at a density of 200,000 cells per well in 100 microlitres in complete growth medium of RPMI 1640 (Gibco) pus 10% fetal Bovine Serum (Coming) and Penicillin/Streptomycin (SolarBio) at 37 degrees Celsius and 5% CO2. A serial dilution of each compound (usually 3 to 5 fold serial dilutions up to 10 separate concentration points) was added to individual wells from a 10 millimolar stock solution, at a background concentration of 0.1% DMSO and the cells were shaken at 600 rpm for 5 minutes and then were cultured for 24 hours at 37 degrees Celsius and 5% carbon dioxide. Separately, a custom MSD (MesoScaleDiscovery, L15XA-3) plate for detection of human MK2 was prepared by coating the plate with the commercial AbCarn ab247272 reagent in 1× Phosphate Buffered Saline at 40 microlitres per well and incubated at 4 degrees Celsius overnight. The next day, the MSD plate was washed with 150 microlitres of Tween buffered saline, blocked with MSD blocking buffer (3% BlockerA from MSD), and washed again.
The cell plate was centrifuged at 3,200 g for 5 minutes and the supernatant was discarded and 100 microlitres of RIPA lysis buffer (containing proteinase inhibitors, Boston BioProducts BP-115D) was added and the plate was sealed and shaken on ice for 20 minutes. The plate was centrifuged as before and 70 microlitres of sample lysate was added to the MSD plates and they were shaken at room temperature for I hour at 600 rpm. The MSD plate was washed 3 times as before and then the primary MK2 detection antibody (Santa Cruz sc-100393) was added at a final concentration of 1 microgram per ml at 25 microlitres per well and shaken at room temperature for 1 hour at 600 rpm.
as §1
as §2, with “IC50and” for “IC50 and”

T1 sequence (P49137 whole entry): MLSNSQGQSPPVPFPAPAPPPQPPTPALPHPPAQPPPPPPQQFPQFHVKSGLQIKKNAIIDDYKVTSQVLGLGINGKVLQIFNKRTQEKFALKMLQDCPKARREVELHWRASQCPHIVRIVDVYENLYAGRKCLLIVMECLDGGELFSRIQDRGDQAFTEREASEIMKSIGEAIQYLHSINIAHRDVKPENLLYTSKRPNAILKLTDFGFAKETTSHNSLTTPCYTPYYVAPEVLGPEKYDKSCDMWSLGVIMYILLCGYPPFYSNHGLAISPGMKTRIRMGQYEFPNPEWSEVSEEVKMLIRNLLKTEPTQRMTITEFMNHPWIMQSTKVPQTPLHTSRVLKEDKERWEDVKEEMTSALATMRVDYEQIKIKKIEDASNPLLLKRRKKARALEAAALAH

COc1ccc2c(c1CCN1CCN(c3ccc(-c4nccc(-c5cc6c([nH]5)C5(CC5)CNC6=O)n4)cc3)CC1)n(C)c(=O)n2C1CCC(=O)NC1=O (stereo not drawn) [I-42]
Dmax (MK2 [1]): > 75% | DC50 (MK2 [1]): < 1 nM | Dmax (MK2 [2]): > 75% | DC50 (MK2 [2]): < 1 nM

Cn1c(=O)n(C2CCC(=O)NC2=O)c2cccc(N3CCC(N4CCN(c5ccc(-c6nccc(-c7cc8c([nH]7)C7(CCCC7)CNC8=O)n6)cc5)CC4)C3)c21 (stereo not drawn) [I-33]
Dmax (MK2 [1]): 50 to 75% | DC50 (MK2 [1]): 1 to 10 nM | Dmax (MK2 [2]): 50 to 75% | DC50 (MK2 [2]): 1 to 10 nM

C[C@@H]1CNc2c(sc3ccc4nc(N5CCC(N(CC(F)(F)F)C6CC7(CCN(c8ccc9c(c8)n(C)c(=O)n9C8CCC(=O)NC8=O)CC7)C6)CC5)ccc4c23)C(=O)N1 (stereo partly drawn) [I-27]
Dmax (MK2 [1]): > 75% | DC50 (MK2 [1]): 1 to 10 nM | Dmax (MK2 [2]): > 75% | DC50 (MK2 [2]): < 1 nM

Cn1c(=O)n(C2CCC(=O)NC2=O)c2ccc(N3CC(CN4CCC(n5cc(-c6nccc(-c7cc8c([nH]7)C7(CC7)CNC8=O)n6)cn5)CC4)C3)cc21 (stereo not drawn) [I-44]
Dmax (MK2 [1]): > 50% | DC50 (MK2 [1]): > 100 nM | Dmax (MK2 [2]): > 50% | DC50 (MK2 [2]): > 100 nM

C[C@@H]1CNc2c(sc3ccc4nc(N5CCN(CCC6CCC7(CC6)CCN(C(=O)c6ccc(Cl)c(N8CCC(=O)NC8=O)c6)CC7)CC5)ccc4c23)C(=O)N1 [I-26]
Dmax (MK2 [1]): > 75% | DC50 (MK2 [1]): 1 to 10 nM | Dmax (MK2 [2]): > 75% | DC50 (MK2 [2]): < 1 nM

Cn1c(=O)n(C2CCC(=O)NC2=O)c2ccc(C#CCN3CCN(c4ccc(-c5nccc(-c6cc7c([nH]6)C6(CC6)CNC7=O)n5)cc4)CC3)cc21 (stereo not drawn) [I-41]
Dmax (MK2 [1]): 50 to 75% | DC50 (MK2 [1]): < 1 nM | Dmax (MK2 [2]): > 75% | DC50 (MK2 [2]): < 1 nM

C[C@@H]1CNc2c(sc3ccc4nc(N5CCN(C6CC7(CCN(c8ccc(NC9CCC(=O)NC9=O)cc8F)CC7)C6)CC5)ccc4c23)C(=O)N1 (stereo partly drawn) [I-25]
Dmax (MK2 [1]): > 75% | DC50 (MK2 [1]): 1 to 10 nM | Dmax (MK2 [2]): > 75% | DC50 (MK2 [2]): < 1 nM

C[C@@H]1CNc2c(sc3ccc4nc(N5CCC(CN6CCC(N7CC(c8ccc9c(c8)n(C)c(=O)n9C8CCC(=O)NC8=O)C7)CC6)CC5)ccc4c23)C(=O)N1 (stereo partly drawn) [I-43]
Dmax (MK2 [1]): > 75% | DC50 (MK2 [1]): < 1 nM | Dmax (MK2 [2]): > 75% | DC50 (MK2 [2]): < 1 nM

C[C@@H]1CNc2c(sc3ccc4nc(N5CCC(CN6CCC7(CC6)CN(c6ccc8c(c6)n(C)c(=O)n8C6CCC(=O)N(C)C6=O)C7)CC5)ccc4c23)C(=O)N1 (stereo partly drawn) [I-52]
Dmax (MK2 [1]): > 75% | DC50 (MK2 [1]): 1 to 10 nM | Dmax (MK2 [2]): > 75% | DC50 (MK2 [2]): > 100 nM
